Like-named read-outs stand apart in the source and are kept apart here.

Results on 1 molecule are retold here after patent US3949090A, “Methods and compositions for improving feed efficiency in ruminants using dithiooxamide” (SmithKline Corporation, priority 1974, dated 1976).

The subject of this assay is Microbial Deaminase (strained rumen fluid). The assay can be described thus: In vitro microbial deaminase inhibition (rumen fluid, alfalfa hay, grain mixture; 4 hours). In kind it is cell-based. As to conditions: for MDI (%): 240 min. As to the method:
The in vitro fermentation system contained 75 ml. strained rumen fluid, 200 mg, alfalfa hay, 800 mg. of a crude protein grain mixture, 0.8 to 1.6 mM of each of 10 essential amino acids (threonine, valine, methionine, isoleucine, leucine, phelylalanine, tryptophan, lysine and arginine), and 0 to 50 ppm dithiooxamide. Flasks were incubated for 4 hours with effects upon amino acid deamination assessed as described for the previous system. Using standard chromatographic techniques, effects upon methanogenesis and upon the pattern of volatile fatty acid production were determined.
^1 In vitro fermentation system contained 75 ml. strained rumen fluid
200 mg. alfalfa hay, 800 mg. grain mixture (16% crude protein) and 1.6 mM
of each of ten essential amino acids. Flasks were incubated for four
200 mg. alfalfa hay, 800 mg. grain mixture (16% crude protein) and 0.8 mM

With `NC(=S)C(N)=S` [Dithiooxamide, dithiooxamide], the inhibition at 5 ppm (4 h, Table II, 5 ppm dithiooxamide, 4 h, read-out: MDI (%)) stood at 6%. Moreover, the inhibition at 10 ppm (4 h, Table II, 10 ppm dithiooxamide, 4 h, read-out: MDI (%)) stood at 68%. Also, the inhibition at 25 ppm (4 h, Table II, 25 ppm dithiooxamide, 4 h, read-out: MDI (%)) stood at 65% and the inhibition at 25 ppm (4 h, Table III, dithiooxamide 25 ppm, no added cobalt or copper, read-out: MDI (%)) is 78%. In addition, the inhibition at 50 ppm (4 h, Table II, 50 ppm dithiooxamide, 4 h, read-out: MDI (%)) came to 94%. Further, the “inhibition of microbial deamination of amino acids (in words)” value (Table II) was “effective inhibitor of microbial deamination of amino acids”. Also, the “MDI (%)” value reads like this: (Table III, dithiooxamide 25 ppm + cobalt sulfate .013 ppm) 81%; (Table III, dithiooxamide 25 ppm + copper sulfate .333 ppm) 90%. In addition, the “Deaminase inhibition on adding cobalt and copper (in words)” value (Table III, varying concentrations of cobalt and copper) was “not affected by adding varying concentrations of cobalt and copper”.
